From PubChem BioAssay AID2060355 (Molecular Pharmacology Branch, DTP, NCI, 2025)

Test system: 485368-065-R4-J2-PDC spheroids with HUVEC/MSC, viability
Assay: Anticancer human tumor 485368-065-R4-J2-PDC patient-derived pancreatic carcinoma cell line growth inhibition [TAK]
Details: for IC50: curve of first compound; for viability, T/C: stronger effect = lower value
From the text: Combinatorial screen of targeted agents with TAK-243 and ipatasertib in multi-cell type tumor spheroids
A high-throughput screen of multi-cell type tumor spheroids was designed to identify active combinations of targeted small molecules and TAK-243 or ipatasertib. Complex spheroids include a stromal component modeled by human endothelial cells (HUVEC) and fibroblasts modeled by human mesenchymal stem cells (MSCs). The concentration ranges selected for each drug and investigational agent were based upon clinically achievable concentrations if the clinical Cmax of the agent was known.
Compounds. The drugs and investigational agents: TAK-243 (785004), ipatasertib (767898), everolimus (733504), selumetinib (741078), bortezomib (756655), trametinib (758246), ixazomib (758254), vemurafenib (761431), dabrafenib (764134), sapanisertib (764658), alpelisib (765974), and copanlisib (816437), were obtained from the National Cancer Institute (NCI) Developmental Therapeutics Program Chemical Repository. The FDA-approved anticancer drug set is available from the NCI Developmental Therapeutics Program. […] The stock solutions were prepared in dimethyl sulfoxide (DMSO, Sigma-Aldrich, St. Louis, MO, cat. D2650) at 800-fold the tested concentration and stored at -70 degrees C prior to their use. All drugs and investigational agents were tested over a range starting from a high concentration at or near the clinical Cmax and decreasing in half-log increments. If the clinical Cmax for an agent had not been determined, the highest concentration tested was 10 microM.
NCI60 Cell Culture. NCI60 cell lines were obtained from the NCI Developmental Therapeutics Program Tumor Repository. For each lot of cells, the Repository performed Applied Biosystems AmpFLSTR Identifiler testing with PCR amplification to confirm consistency with the published Identifier STR profile for each cell line. Cells were kept in continuous culture for no more than 20 passages. The optimal seeding densities for each of the cell lines at each time point assessed were determined prior to performing the concentration response studies. Briefly, the NCI60 human tumor lines were grown as monolayers in RPMI 1640 medium supplemented with 10% FBS and 2 mmol/L L-glutamine.
An additional 2 lines were from the NCI60 cell line panel including melanomas, MALME-3M and SK-MEL-2. Pooled donor human umbilical vein endothelial cells (HUVEC, Lonza, cat. CC-2519) and human mesenchymal stem cells (hMSC, Lonza, cat. PT-2501) were purchased from Lonza (Walkersville, MD).
PDMR cell lines were grown in complete medium (DC medium): Dulbecco's modified Eagle's medium (DMEM)/F12 supplemented with 5% fetal bovine serum (FBS), 2 mM L-glutamine, 100 U/mL penicillin and 100 µg/ml streptomycin, 0.4 µg/ml hydrocortisone, 10 ng/ml epidermal growth factor (EGF) recombinant human protein, 24 µg/mL adenine, and 0.1 mg/mL primocin. During culture from frozen stock vials, PDMR cells were cultured in the same medium containing 10 µM Y-27632 (see Table 3). The PDCs were cultured in complete DMEM/F12 media without 10 microM Y-27632 dihydrochloride for at least two passages prior to the screen. The pooled donor HUVEC and hMSC were cultured in endothelial cell growth medium 2 (PromoCell, Heidelberg, Germany, cat. C-22011) and mesenchymal stem cell growth medium 2 (PromoCell, cat. C-28009), respectively. For all experiments, HUVEC and hMSC were used at passages </=5.
For the pre-screen, cell seeding densities were determined from a titration spanning the range from 5,000 to 313 cells per well. The mct-spheroids including 60% malignant cells, 25% HUVEC and 15% MSC dispensed as a mixture into U-bottom Ultra-Low Attachment 384-well plates (Corning, NY)
High-throughput Drug Combination Screening.
Prior to their inoculation into 384-well plates, malignant cells, HUVEC, and hMSC were removed from T flasks using TrypLE express (Thermo Fisher Scientific, cat. 12605036) and harvested by centrifugation for 5 min at 233 x g. […]
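Note: spheroids exposed to compounds for seven days before readout.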
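Throughout, for viability, T/C: 100% = DMSO vehicle control wells.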

## COC1CC2CCC(C)C(O)(O2)C(=O)C(=O)N2CCCCC2C(=O)OC(C(C)CC2CCC(OCCO)C(OC)C2)CC(=O)C(C)C=C(C)C(O)C(OC)C(=O)C(C)CC(C)C=CC=CC=C1C (stereo not given) + CC(C)NCC(C(=O)N1CCN(c2ncnc3c2C(C)CC3O)CC1)c1ccc(Cl)cc1
Second compound 0.3 µM
  IC50: > 100 nM
Second compound 0.949 µM
  IC50: > 100 nM
Second compound 3 µM
  IC50: > 100 nM
Second compound 9.49 µM
  IC50: > 100 nM
Second compound 30 µM
  IC50: > 100 nM
Second compound 0.3 µM, first compound 0.000316 µM
  viability, T/C: 93.1%
Second compound 0.3 µM, first compound 0.001 µM
  viability, T/C: 102%
Second compound 0.3 µM, first compound 0.00316 µM
  viability, T/C: 104%
Second compound 0.3 µM, first compound 0.01 µM
  viability, T/C: 107%
Second compound 0.3 µM, first compound 0.0316 µM
  viability, T/C: 101%
Second compound 0.3 µM, first compound 0.1 µM
  viability, T/C: 102%
Second compound 0.949 µM, first compound 0.000316 µM
  viability, T/C: 103%
Second compound 0.949 µM, first compound 0.001 µM
  viability, T/C: 106%
Second compound 0.949 µM, first compound 0.00316 µM
  viability, T/C: 100%
Second compound 0.949 µM, first compound 0.01 µM
  viability, T/C: 92.1%
Second compound 0.949 µM, first compound 0.0316 µM
  viability, T/C: 87.3%
Second compound 0.949 µM, first compound 0.1 µM
  viability, T/C: 83.5%
Second compound 3 µM, first compound 0.000316 µM
  viability, T/C: 100%
Second compound 3 µM, first compound 0.001 µM
  viability, T/C: 97.1%
Second compound 3 µM, first compound 0.00316 µM
  viability, T/C: 82.9%
Second compound 3 µM, first compound 0.01 µM
  viability, T/C: 76.5%
Second compound 3 µM, first compound 0.0316 µM
  viability, T/C: 71.1%
Second compound 3 µM, first compound 0.1 µM
  viability, T/C: 74.4%
Second compound 9.49 µM, first compound 0.000316 µM
  viability, T/C: 83.8%
Second compound 9.49 µM, first compound 0.001 µM
  viability, T/C: 83.1%
Second compound 9.49 µM, first compound 0.00316 µM
  viability, T/C: 69%
Second compound 9.49 µM, first compound 0.01 µM
  viability, T/C: 71.4%
Second compound 9.49 µM, first compound 0.0316 µM
  viability, T/C: 64.3%
Second compound 9.49 µM, first compound 0.1 µM
  viability, T/C: 60.3%
Second compound 30 µM, first compound 0.000316 µM
  viability, T/C: 73.9%
Second compound 30 µM, first compound 0.001 µM
  viability, T/C: 69%
Second compound 30 µM, first compound 0.00316 µM
  viability, T/C: 63.9%
Second compound 30 µM, first compound 0.01 µM
  viability, T/C: 58.7%
Second compound 30 µM, first compound 0.0316 µM
  viability, T/C: 60.1%
Second compound 30 µM, first compound 0.1 µM
  viability, T/C: 54.5%

## Cn1cnc2c(F)c(Nc3ccc(Br)cc3Cl)c(C(=O)NOCCO)cc21 + CC(C)NCC(C(=O)N1CCN(c2ncnc3c2C(C)CC3O)CC1)c1ccc(Cl)cc1
Second compound 0.3 µM
  IC50: 261 nM
Second compound 0.949 µM
  IC50: 51 nM
Second compound 3 µM
  IC50: 32.6 nM
Second compound 9.49 µM
  IC50: 17.1 nM
Second compound 30 µM
  IC50: 9.58 nM
Second compound 0.3 µM, first compound 0.00949 µM
  viability, T/C: 76.1%
Second compound 0.3 µM, first compound 0.03 µM
  viability, T/C: 69.6%
Second compound 0.3 µM, first compound 0.0949 µM
  viability, T/C: 59%
Second compound 0.3 µM, first compound 0.3 µM
  viability, T/C: 48.5%
Second compound 0.3 µM, first compound 0.949 µM
  viability, T/C: 37%
Second compound 0.3 µM, first compound 3 µM
  viability, T/C: 23%
Second compound 0.949 µM, first compound 0.00949 µM
  viability, T/C: 70%
Second compound 0.949 µM, first compound 0.03 µM
  viability, T/C: 56.2%
Second compound 0.949 µM, first compound 0.0949 µM
  viability, T/C: 42.9%
Second compound 0.949 µM, first compound 0.3 µM
  viability, T/C: 30.3%
Second compound 0.949 µM, first compound 0.949 µM
  viability, T/C: 21.7%
Second compound 0.949 µM, first compound 3 µM
  viability, T/C: 13.5%
Second compound 3 µM, first compound 0.00949 µM
  viability, T/C: 72.5%
Second compound 3 µM, first compound 0.03 µM
  viability, T/C: 51.6%
Second compound 3 µM, first compound 0.0949 µM
  viability, T/C: 31.2%
Second compound 3 µM, first compound 0.3 µM
  viability, T/C: 19.4%
Second compound 3 µM, first compound 0.949 µM
  viability, T/C: 13.6%
Second compound 3 µM, first compound 3 µM
  viability, T/C: 10.7%
Second compound 9.49 µM, first compound 0.00949 µM
  viability, T/C: 60.4%
Second compound 9.49 µM, first compound 0.03 µM
  viability, T/C: 40.6%
Second compound 9.49 µM, first compound 0.0949 µM
  viability, T/C: 24.1%
Second compound 9.49 µM, first compound 0.3 µM
  viability, T/C: 17.4%
Second compound 9.49 µM, first compound 0.949 µM
  viability, T/C: 10.9%
Second compound 9.49 µM, first compound 3 µM
  viability, T/C: 8.27%
Second compound 30 µM, first compound 0.00949 µM
  viability, T/C: 50.1%
Second compound 30 µM, first compound 0.03 µM
  viability, T/C: 33.9%
Second compound 30 µM, first compound 0.0949 µM
  viability, T/C: 21.2%
Second compound 30 µM, first compound 0.3 µM
  viability, T/C: 15.5%
Second compound 30 µM, first compound 0.949 µM
  viability, T/C: 11.1%
Second compound 30 µM, first compound 3 µM
  viability, T/C: 9.61%
